What is called IC50 is the point on the concentration scale where inhibition reaches its midpoint. Usually EC50 stands for the concentration that produces a half-maximal response.

Like-named read-outs stand apart in the source and are kept apart here.

Experiment [1] deals with T1, recombinant full length human JNK3 enzyme (Homo sapiens, UniProt P53779).
T1 construct: recombinant full length human JNK2 or JNK3 enzyme; purchased Upstate; host or cells: Sf21 cells
Put plainly: JNK 3 inhibition assay (ATP depletion, luciferase). Conditions: for IC50: 10 uM ATP, ATF2 substrate; for JNK-3 inhibition (in words): see Table 2. The class given is biochemical. The method, then: In a 96-well plate, recombinant full length human JNK2 or JNK3 enzyme (40 ng) expressed in Sf21 cells (Upstate) was incubated with the substrate ATF2 (3 uM) for 1 hour in the presence of 10 uM ATP. […] The ATP levels were quantified using luciferase with luminescence read on a Victor Light 1420 luminometer. IC50 calculations were plotted using a nonlinear regression curve fit.

Experiment [2] deals with T2, recombinant human phosphodiesterase 10A1 enzyme (Homo sapiens, UniProt Q9Y233).
T2 construct: purchased BPS Biosciences; host or cells: Baculovirus infected Sf9 cells
T2 sequence (Q9Y233 1-779 isoform Q9Y233-1): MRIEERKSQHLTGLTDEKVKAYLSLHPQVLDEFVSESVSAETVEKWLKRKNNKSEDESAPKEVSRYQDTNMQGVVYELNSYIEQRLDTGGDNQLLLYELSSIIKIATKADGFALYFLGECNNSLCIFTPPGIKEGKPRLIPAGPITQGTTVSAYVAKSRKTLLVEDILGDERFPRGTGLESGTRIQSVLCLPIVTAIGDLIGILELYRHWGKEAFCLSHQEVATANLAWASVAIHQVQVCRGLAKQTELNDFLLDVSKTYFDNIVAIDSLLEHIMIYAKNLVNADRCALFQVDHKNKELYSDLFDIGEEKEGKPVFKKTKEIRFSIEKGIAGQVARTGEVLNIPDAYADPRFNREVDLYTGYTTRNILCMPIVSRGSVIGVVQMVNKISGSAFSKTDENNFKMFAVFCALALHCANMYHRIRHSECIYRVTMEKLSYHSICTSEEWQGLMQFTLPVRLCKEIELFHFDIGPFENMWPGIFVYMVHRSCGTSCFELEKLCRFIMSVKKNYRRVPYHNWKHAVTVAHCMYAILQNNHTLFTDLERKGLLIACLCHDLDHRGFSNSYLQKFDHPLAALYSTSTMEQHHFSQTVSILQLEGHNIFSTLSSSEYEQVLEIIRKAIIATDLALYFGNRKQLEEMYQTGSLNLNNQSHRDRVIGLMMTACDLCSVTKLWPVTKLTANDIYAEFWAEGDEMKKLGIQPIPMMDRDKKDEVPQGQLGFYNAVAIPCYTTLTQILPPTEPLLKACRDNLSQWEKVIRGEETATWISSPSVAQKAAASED
Put plainly: PDE10 inhibition assay (PDELight). It is filed as biochemical. Conditions: for IC50: 1 uM cAMP, read-out: PDE 10 Inhibition (IC50 in μM); for PDE-10 inhibition (in words): Table 2. The method, then: In a 96-well plate, recombinant human phosphodiesterase 10A1 enzyme (10 U/well) expressed in Baculovirus infected Sf9 cells (BPS Biosciences) was combined with 1 uM cAMP substrate (Sigma). […] Using a PDELight® kit (Cambrex), the amount of AMP produced in the reaction from the hydrolysis of cAMP was quantified using PDELight AMP Detection Reagent which converts the AMP directly to ATP. The assay uses luciferase, which catalyses the formation of light from the newly formed ATP and luciferin. The luminescence was read on a Victor Light 1420 luminometer. IC50 calculations were plotted using a nonlinear regression curve fit.

The target in experiment [3] is T3, catalytic domain of phosphodiesterase 4B enzyme cloned from human brain (Homo sapiens, UniProt Q07343).
T3 construct: the catalytic domain of phosphodiesterase 4B enzyme; purchased Scottish Biomedical
T3 sequence (Q07343 330-659 limits assumed): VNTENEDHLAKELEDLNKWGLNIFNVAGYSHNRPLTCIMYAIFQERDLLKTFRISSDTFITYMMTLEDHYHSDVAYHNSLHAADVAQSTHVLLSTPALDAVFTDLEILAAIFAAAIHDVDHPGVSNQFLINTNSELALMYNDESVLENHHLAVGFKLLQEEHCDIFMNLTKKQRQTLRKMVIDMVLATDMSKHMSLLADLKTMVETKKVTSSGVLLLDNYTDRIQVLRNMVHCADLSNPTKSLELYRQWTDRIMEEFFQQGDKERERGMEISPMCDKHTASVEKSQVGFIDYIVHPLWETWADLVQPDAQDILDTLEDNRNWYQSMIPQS
Put plainly: PDE4 inhibition assay (PDELight). The class given is biochemical. The settings on record: for IC50: 5 uM cAMP, read-out: PDE 4 Inhibition (IC50 in μM). The method, then:
In a 96-well plate, the catalytic domain of phosphodiesterase 4B enzyme (40 mU/well) cloned from human brain (Scottish Biomedical) was combined with 5 uM cAMP substrate (Sigma). […] Using a PDELight® kit (Cambrex), the amount of AMP produced in the reaction from the hydrolysis of cAMP was quantified using PDELight AMP Detection Reagent which converts the AMP directly to ATP. The assay uses luciferase, which catalyses the formation of light from the newly formed ATP and luciferin. […] IC50 calculations were plotted using a nonlinear regression curve fit.

The subject of experiment [4] is rat chronic constriction injury (CCI) model of neuropathic pain. Put plainly: Rat chronic constriction injury (CCI) model of neuropathic pain. It is filed as in vivo. The settings on record: IP, dose not given; 50% paw withdrawal threshold, von Frey. The method, then: To induce allodynia, male Sprague-Dawley rats underwent chronic constriction injury (CCI) to the sciatic nerve as described by Bennett and Xie, Pain 1988; 33(1):87-107. The plantar surface of the hind paws was stimulated with von Frey filaments (Stoelting) to induce a withdrawal response by blinded personnel. The bending force of fiber required to induce a 50% withdrawal response was calculated following CCI surgery (pre-dosing baseline). N=5-6 allodynic rats received a single IP or oral administration of test compounds or vehicle. Two hours post-dosing, 50% paw withdrawal threshold was determined again by blinded testers using von Frey filaments. The 50% withdrawal threshold prior to CCI surgery, pre-dosing (10 days post-surgery), and 2 hours post-dosing are plotted.
For selected compounds multi-day studies were perfumed with pre-determined schedules for dosing and withdrawal threshold assessments.

The test system of experiment [5] is at least one of JNK 3 or JNK 2 and at least one of PDE 10 or PDE 4. Put plainly: Dual inhibition (phosphodiesterase and JNK). The settings on record: IC50 JNK 3 or JNK 2 less than about 5.00 μM and PDE 10 or PDE 4 less than about 20.0 or 30.0 μM. The class given is biochemical, human. The method, then:
In a 96-well plate, recombinant full length human JNK2 or JNK3 enzyme (40 ng) expressed in Sf21 cells (Upstate) was incubated with the substrate ATF2 (3 uM) for 1 hour in the presence of 10 uM ATP. The amount of ATP depletion by the JNK enzyme is measured in the presence or absence of test compounds (0-30 uM). The ATP levels were quantified using luciferase with luminescence read on a Victor Light 1420 luminometer. IC50 calculations were plotted using a nonlinear regression curve fit.
In a 96-well plate, the catalytic domain of phosphodiesterase 4B enzyme (40 mU/well) cloned from human brain (Scottish Biomedical) was combined with 5 uM cAMP substrate (Sigma). Test compounds (0-30 uM) or vehicle (0.5% DMSO) were added to the enzyme/substrate and incubated 1 hour. Using a PDELight® kit (Cambrex), the amount of AMP produced in the reaction from the hydrolysis of cAMP was quantified using PDELight AMP Detection Reagent which converts the AMP directly to ATP. The assay uses luciferase, which catalyses the formation of light from the newly formed ATP and luciferin. The luminescence was read on a Victor Light 1420 luminometer. IC50 calculations were plotted using a nonlinear regression curve fit.
In a 96-well plate, recombinant human phosphodiesterase 10A1 enzyme (10 U/well) expressed in Baculovirus infected Sf9 cells (BPS Biosciences) was combined with 1 uM cAMP substrate (Sigma). Test compounds (0-30 uM) or vehicle (0.5% DMSO) were added to the enzyme/substrate and incubated 1 hour. Using a PDELight® kit (Cambrex), the amount of AMP produced in the reaction from the hydrolysis of cAMP was quantified using PDELight AMP Detection Reagent which converts the AMP directly to ATP. The assay uses luciferase, which catalyses the formation of light from the newly formed ATP and luciferin. The luminescence was read on a Victor Light 1420 luminometer. IC50 calculations were plotted using a nonlinear regression curve fit.

Experiment [6] deals with T4, recombinant full length human JNK2 enzyme (Homo sapiens, UniProt P45984).
T4 construct: recombinant full length human JNK2 or JNK3 enzyme; purchased Upstate; host or cells: Sf21 cells
T4 sequence (P45984 whole entry): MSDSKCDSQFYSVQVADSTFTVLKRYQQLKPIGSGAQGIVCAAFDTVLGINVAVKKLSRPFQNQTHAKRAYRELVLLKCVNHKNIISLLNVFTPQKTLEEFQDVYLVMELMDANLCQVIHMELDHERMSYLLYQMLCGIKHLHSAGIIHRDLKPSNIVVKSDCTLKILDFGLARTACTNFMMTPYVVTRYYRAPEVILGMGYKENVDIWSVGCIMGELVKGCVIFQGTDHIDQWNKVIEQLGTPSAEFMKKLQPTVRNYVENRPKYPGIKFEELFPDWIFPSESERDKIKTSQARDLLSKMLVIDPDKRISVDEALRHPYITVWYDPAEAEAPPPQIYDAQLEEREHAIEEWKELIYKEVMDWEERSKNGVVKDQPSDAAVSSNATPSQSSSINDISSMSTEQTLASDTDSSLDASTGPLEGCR
Put plainly: JNK 2 inhibition assay (ATP depletion, luciferase). It is filed as biochemical. The method, then: In a 96-well plate, recombinant full length human JNK2 or JNK3 enzyme (40 ng) expressed in Sf21 cells (Upstate) was incubated with the substrate ATF2 (3 uM) for 1 hour in the presence of 10 uM ATP. […] IC50 calculations were plotted using a nonlinear regression curve fit.

Experiment [7] has as its system Mouse BV-2 microglial cells. Put plainly: BV-2 glial cell assay (TNF-α and MCP-1 by Luminex). The class given is cell-based. Conditions: for EC50: Mus musculus, BV-2, LPS and IFN-γ activated, 20 hours. The method, then:
Mouse BV-2 microglial cells were seeded on 96-well plates at a concentration of 3×10^4 cells/well. Cells were activated with 100 ng/mL LPS and IFN-γ (100 ng/mL) in the presence or absence of test compounds (0-30 uM). Following incubation for 20 hours, cells were spun down and supernatant collected. The supernatant was analyzed via Luminex for the presence of TNF-α and MCP-1.

[8] abbreviates: read-out: IC50 value based upon a JNK 2 inhibition assay (range given).
Setting [9] is: 10 uM ATP, ATF2 substrate, read-out: JNK 2 Inhibition (IC50 in μM).

T1 sequence (P53779 whole entry): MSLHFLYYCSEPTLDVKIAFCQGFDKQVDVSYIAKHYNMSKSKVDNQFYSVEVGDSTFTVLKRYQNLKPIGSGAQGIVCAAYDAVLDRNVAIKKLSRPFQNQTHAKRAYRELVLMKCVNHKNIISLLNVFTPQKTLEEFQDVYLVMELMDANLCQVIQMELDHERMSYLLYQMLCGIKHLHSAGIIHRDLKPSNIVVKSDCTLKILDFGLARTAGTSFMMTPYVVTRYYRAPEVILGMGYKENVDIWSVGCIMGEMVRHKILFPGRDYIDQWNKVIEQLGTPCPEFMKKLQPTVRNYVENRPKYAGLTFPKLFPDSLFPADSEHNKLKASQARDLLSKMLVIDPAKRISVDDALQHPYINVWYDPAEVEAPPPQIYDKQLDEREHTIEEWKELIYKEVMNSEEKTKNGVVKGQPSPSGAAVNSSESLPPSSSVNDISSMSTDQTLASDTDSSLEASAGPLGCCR

In the case of `CC(C)c1nn2ccccc2c1-c1ccnc(NCCCO)n1` [AV1134, 3-(4-(2-isopropylpyrazolo[1,5-a]pyridin-3-yl)pyrimidin-2-ylamino)propan-1-ol], the IC50 was 8.2 µM in experiment [1], 9.3 µM in experiment [2] and 6.2 µM in experiment [3]. In experiment [2], the “PDE-10 inhibition (in words)” value is “particularly effective”. For the same molecule, the “PDE-4 inhibition (in words)” value in experiment [3] was “particularly effective”. Moreover, the “IP CCI efficacy (Change in grams)” value in experiment [4] came out at 0 grams. Besides, in experiment [5], the “dual inhibition (phosphodiesterase and JNK)” value (“dual inhibition” below) was “effective dual inhibitors”.

As to `CC(C)c1nn2ccccc2c1-c1ccnc(NC2CC2)n1` [AV1136, N-cyclopropyl-4-(2-isopropylpyrazolo[1,5-a]pyridin-3-yl)pyrimidin-2-amine], in experiment [1], the IC50 amounted to 1.5 µM and the “JNK-3 inhibition (in words)” value is “particularly effective”. Moreover, in experiment [2], the half-inhibitory concentration (IC50) turned out to be 16.8 µM and the “PDE-10 inhibition (in words)” value is on record as “particularly effective”. Moreover, in experiment [3], the “PDE-4 inhibition (in words)” value was “particularly effective” and the IC50 is 4.5 µM. Besides, in experiment [4], the “IP CCI efficacy (Change in grams)” value is recorded as 0 grams. The “dual inhibition” value in experiment [5] was “effective dual inhibitors”.

On to `CC(C)c1nn2ccccc2c1-c1ccnc(NC2CCC2)n1` [AV1156, N-cyclobutyl-4-(2-isopropylpyrazolo[1,5-a]pyridin-3-yl)pyrimidin-2-amine], for which the IC50 was 3 µM in experiment [1], 0.01 to 2 µM in experiment [6] (setting [8]), 20 µM in experiment [2] and 8.6 µM in experiment [3]. Besides, the “PDE-4 inhibition (in words)” value in experiment [3] is listed as “particularly effective”. For the same molecule, the “IP CCI efficacy (Change in grams)” value in experiment [4] is listed as 0.33 grams. Besides, the “dual inhibition” value in experiment [5] was “effective dual inhibitors”.

Consider `CC(C)CNc1nccc(-c2cnn3ccccc23)n1` [AV1167, N-isobutyl-4-(pyrazolo[1,5-a]pyridin-3-yl)pyrimidin-2-amine], for which the half-inhibitory concentration (IC50) in experiment [1] was 0.7 µM; in experiment [6] (setting [9]) it was 1.5 µM; in experiment [6] (setting [8]) it was 0.01 to 2 µM; in experiment [2], 37 µM; in experiment [3], 13 µM. Also, the “JNK-3 inhibition (in words)” value in experiment [1] is reported as “particularly effective”. In experiment [5], the “dual inhibition” value was “effective dual inhibitors”.

Turning to `CCCCc1nn2ccccc2c1-c1ccnc(NC(C)C)n1` [AV1174, 4-(2-butylpyrazolo[1,5-a]pyridin-3-yl)-N-isopropylpyrimidin-2-amine], the IC50 in experiment [1] was 1.1 µM; in experiment [6] (setting [9]) it was 1.2 µM; in experiment [6] (setting [8]) it was 0.01 to 2 µM; in experiment [2], 31 µM; in experiment [3], 7.9 µM. For the same molecule, the “JNK-3 inhibition (in words)” value in experiment [1] is listed as “particularly effective”. In experiment [3], the “PDE-4 inhibition (in words)” value is on record as “particularly effective”. In addition, the “dual inhibition” value in experiment [5] was “effective dual inhibitors”.

On to `COCc1nn2ccccc2c1-c1ccnc(NC(C)C)n1` [AV1175, N-isopropyl-4-(2-(methoxymethyl)pyrazolo[1,5-a]pyridin-3-yl)pyrimidin-2-amine], for which the IC50 was 1.2 µM in experiment [1], 4.5 µM in experiment [6] (setting [9]), above 100 µM in experiment [2] and 8.6 µM in experiment [3]. Moreover, the “JNK-3 inhibition (in words)” value in experiment [1] is “particularly effective”. In addition, the “PDE-4 inhibition (in words)” value in experiment [3] was “particularly effective”. Further, the “dual inhibition” value in experiment [5] is “effective dual inhibitors”.

`CC(C)Nc1nccc(-c2c(-c3ccccc3)nn3ccccc23)n1` [AV1176, N-isopropyl-4-(2-phenylpyrazolo[1,5-a]pyridin-3-yl)pyrimidin-2-amine]: the IC50 in experiment [1] was 0.1 µM; in experiment [6] (setting [9]), 0.1 µM; in experiment [6] (setting [8]), 0.01 to 2 µM; in experiment [2] it was above 100 µM; in experiment [3], 3.8 µM. Besides, the “JNK-3 inhibition (in words)” value in experiment [1] was “particularly effective”. Also, in experiment [3], the “PDE-4 inhibition (in words)” value is “particularly effective”. Besides, in experiment [5], the “dual inhibition” value is reported as “effective dual inhibitors”.

On to `CC(C)Cc1nn2ccccc2c1-c1ccnc(NC(C)C)n1` [AV1177, 4-(2-isobutylpyrazolo[1,5-a]pyridin-3-yl)-N-isopropylpyrimidin-2-amine], for which the half-maximal inhibitory concentration (IC50) in experiment [1] is 1.8 µM; in experiment [6] (setting [9]), 3 µM; in experiment [2], above 100 µM; in experiment [3], 6.4 µM. In experiment [1], the “JNK-3 inhibition (in words)” value is “particularly effective”. Also, the “PDE-4 inhibition (in words)” value in experiment [3] is reported as “particularly effective”. The “dual inhibition” value in experiment [5] is reported as “effective dual inhibitors”.

Regarding `Cc1nn2ccccc2c1-c1ccnc(NC2CCCC2)n1` [AV1182, N-cyclopentyl-4-(2-methylpyrazolo[1,5-a]pyridin-3-yl)pyrimidin-2-amine], in experiment [1], the 50% inhibitory concentration (IC50) came to 0.9 µM and the “JNK-3 inhibition (in words)” value is given as “particularly effective”. Besides, the concentration for half-maximal inhibition (IC50) in experiment [2] is above 100 µM. Further, in experiment [3], the “PDE-4 inhibition (in words)” value was “particularly effective” and the IC50 was 5.7 µM. Moreover, in experiment [5], the “dual inhibition” value is reported as “effective dual inhibitors”.

Turning to `Clc1cccc(-c2nn3ccccc3c2-c2ccnc(NC3CCCC3)n2)c1` [AV1194, 4-(2-(3-chlorophenyl)pyrazolo[1,5-a]pyridin-3-yl)-N-cyclopentylpyrimidin-2-amine], the 50% inhibitory concentration (IC50) in experiment [1] was 0.08 µM; in experiment [6] (setting [9]), 0.1 µM; in experiment [6] (setting [8]), 0.01 to 2 µM; in experiment [2] it was above 100 µM; in experiment [3], 5.2 µM. The “JNK-3 inhibition (in words)” value in experiment [1] is “particularly effective”. Besides, in experiment [3], the “PDE-4 inhibition (in words)” value was “particularly effective”. Moreover, the concentration giving a half-maximal response (EC50) came out at 1.2 µM in experiment [7] (read-out: MCP-1 BV-2 (EC50 in μM)) and 0.03 µM in experiment [7] (read-out: TNF-a BV-2 (EC50 in μM)). For the same molecule, the “inhibiting glial cell activation (TNF-α and/or MCP-1)” value in experiment [7] (Table 3) is listed as “Particularly effective”. Moreover, the “dual inhibition” value in experiment [5] is listed as “effective dual inhibitors”.

The values are drawn from US20110039873A1, “SUBSTITUTED PYRAZOLO[1,5-a] PYRIDINE COMPOUNDS HAVING MULTI-TARGET ACTIVITY” (priority 2009, published 2011).
